Experiments:
[1] = test system: Inoculum of bacteria (Activated sludge taken from Domestic Waste Water treatment Plant—Haifa); assay: Microbial efficacy (% kill) under different TOC loading, activated sludge bacteria, pour plate count on R2A agar; format: cell-based; settings: contact time 30 min, pH 7
From the text: Inoculum of bacteria (Activated sludge taken from Domestic Waste Water treatment Plant-Haifa). R2A agar for general counting. Tryptone, in amounts of either 0.025, or 0.119 or 0.239 g solid tryptone, was weighed and dissolved in 1 liter of buffer. Neutralization solution (NaHSO4). Chlorourea solution, prepared from aq. urea hydrochloride (consisting of 5.8% HCl and 38.2% urea, Wt %) and a 12.9% aq NaOCl as Cl2, Wt %); Urea, HCl:NaOCl 4:1:1 molar ratio. The biocidal efficacy of the antifouling composition at different organic loads of 0, 10, 30 and 50 ppm TOC, was examined under different biocidal concentrations (2.5, 5 and 10 ppm) at pH 7. 1) 1 ml of inoculum was added to tryptone solutions (placed in 3 erlenmeyer flasks, 100 ml each, with different concentrations of TOC-0, 10, 30 and 50 ppm). 2) 1 ml of each sample was inoculated on […] agar (pour plate method). The result stands for the bacteria count at zero time. 3) For each of the tryptone concentrations (0, 10, 30, 50 ppm TOC) an inoculum of bacteria (1 ml) and the appropriate biocide concentration were added. 4) After 30 and 60 min. of shaking (100 rpm), 1 ml of each sample was transferred to a tube filled with 9 ml of the neutralization solution. An aliquot of 1 ml was taken from this solution and added to another tube containing 9 ml of buffer solution. The solution was mixed under vortex. This operation was repeated 4 more times. 5) 1 ml from the two lowest dilutions was inoculated on a […] agar (by the pour plate method). 6) After the plates were incubated at 25° C. for 5-7 days, the bacteria count was recorded.

[2] = test system: Pseudomonas aeruginosa (ATCC 15442) entrapped in alginate gel beads; assay: Biocidal activity against simulated biofilm (bacteria entrapped in alginate gel beads), surviving CFU; settings: contact time 24 hours, count at time 0 1.40E+07

**Q.** For `OCl` [NaOCl, sodium hypochlorite], which “% Kill” value ([1]; TOC 0 ppm, biocide 2.5 ppm as Cl2) is on record?
**A.** 98.8%

**Q.** What about the “% Kill” value ([1]; TOC 0 ppm, biocide 5 ppm as Cl2) of the same compound?
**A.** 99.6%

**Q.** And the “% Kill” value ([1]; TOC 0 ppm, biocide 10 ppm as Cl2)?
**A.** 99.9%

**Q.** What about the “% Kill” value ([1]; TOC 10 ppm, biocide 2.5 ppm as Cl2) of the same compound?
**A.** 37.7%

**Q.** What about the “% Kill” value ([1]; TOC 10 ppm, biocide 5 ppm as Cl2) of the same compound?
**A.** 97.8%

**Q.** What about the “% Kill” value ([1]; TOC 10 ppm, biocide 10 ppm as Cl2) of the same compound?
**A.** 99.5%

**Q.** What about the “% Kill” value ([1]; TOC 30 ppm, biocide 2.5 ppm as Cl2) of the same compound?
**A.** 11.6%

**Q.** What about the “% Kill” value ([1]; TOC 30 ppm, biocide 5 ppm as Cl2) of the same compound?
**A.** 78.2%

**Q.** What about the “% Kill” value ([1]; TOC 30 ppm, biocide 10 ppm as Cl2) of the same compound?
**A.** 93.6%

**Q.** What about the “% Kill” value ([1]; TOC 50 ppm, biocide 2.5 ppm as Cl2) of the same compound?
**A.** 24.1%

**Q.** What about the “% Kill” value ([1]; TOC 50 ppm, biocide 5 ppm as Cl2) of the same compound?
**A.** 49.2%

**Q.** What about the “% Kill” value ([1]; TOC 50 ppm, biocide 10 ppm as Cl2) of the same compound?
**A.** 91.7%

**Q.** And the “survival of bacteria (CFU)” value ([2]; biocide 0.5 ppm as Cl2)?
**A.** 3.6E+06 CFU

**Q.** What about the “survival of bacteria (CFU)” value ([2]; biocide 1 ppm as Cl2) of the same compound?
**A.** 2.53E+06 CFU

**Q.** And the “survival of bacteria (CFU)” value ([2]; biocide 2.5 ppm as Cl2)?
**A.** 1.00E+00 CFU

**Q.** And the “survival of bacteria (CFU)” value ([2]; biocide 5 ppm as Cl2)?
**A.** 1.00E+00 CFU
